The assay concerns the target T1, α7 nicotinic acetylcholine receptor (α7nAChR) (Mus musculus, UniProt P49582).
T1 construct: gene Chrna7; native receptor in hippocampal CA1 pyramidal cells (brain slices)
The assay is described as follows: whole cell patch-clamp of ACh-evoked inward current in mouse hippocampal slices, dose-response. (In general: Patch clamp records ionic current or voltage across a cell membrane.)

Our source for the EC50 values is PMC7801264, “Farnesyl Transferase Inhibitor Lonafarnib Enhances α7nAChR Expression Through Inhibiting DNA Methylation of CHRNA7 and Increases α7nAChR Membrane Trafficking” (Frontiers in Pharmacology, 2020).

T1 sequence (P49582 23-502): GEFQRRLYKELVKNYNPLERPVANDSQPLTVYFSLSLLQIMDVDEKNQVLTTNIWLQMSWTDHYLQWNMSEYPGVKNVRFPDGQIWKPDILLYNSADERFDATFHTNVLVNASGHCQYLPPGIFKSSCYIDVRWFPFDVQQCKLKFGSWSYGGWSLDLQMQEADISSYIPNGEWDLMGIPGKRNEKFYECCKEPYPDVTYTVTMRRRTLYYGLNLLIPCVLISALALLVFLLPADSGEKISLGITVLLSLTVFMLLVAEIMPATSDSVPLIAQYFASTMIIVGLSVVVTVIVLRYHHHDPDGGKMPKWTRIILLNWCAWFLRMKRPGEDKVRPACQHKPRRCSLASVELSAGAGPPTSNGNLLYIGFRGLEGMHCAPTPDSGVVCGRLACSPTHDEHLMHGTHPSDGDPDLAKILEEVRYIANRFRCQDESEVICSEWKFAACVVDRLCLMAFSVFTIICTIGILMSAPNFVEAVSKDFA

By EC50 is commonly meant the midpoint of the concentration-response curve. `CC(=O)OCC[N+](C)(C)C` [acetylcholine] had an EC50 of 431 µM.
